Assay results published in patent US11716992B2, “5A5B6C tricyclic spirolactone derivative, preparation method therefor and use thereof” (NANKAI UNIVERSITY, priority 2017, dated 2023).
Values joined by “and” are separate entries in the source; they are usually repeats but may differ in a detail not shown here. Identical values can stand only once. Like-named read-outs stand apart in the source and are kept apart here.

What was measured:
[1] = tested on: Mythimna separate (Walker); experiment: Insecticidal activity against Mythimna separate (Walker); type: in vivo; settings: 100 μg/mL; for pest or weed control at 100 µg/mL: Mythimna, read-out: insecticidal activity, Mythimna separate (Walker)
[2] = tested on: Helicoverpa armigera (Hübner); experiment: Insecticidal activity against Helicoverpa armigera (Hübner); type: in vivo; settings: 100 μg/mL; for pest or weed control at 100 µg/mL: Helicoverpa armigera, read-out: insecticidal activity, Helicoverpa armigera (Hübner)
[3] = tested on: Ostrinia furnacalis; experiment: Insecticidal activity against Ostrinia furnacalis; type: in vivo; settings: 100 μg/mL; for pest or weed control at 100 µg/mL: Ostrinia furnacalis, read-out: insecticidal activity, Ostrinia furnacalis
[4] = tested on: Caenorhabditis elegans; experiment: Insecticidal activity against Caenorhabditis elegans; type: in vivo; settings: Caenorhabditis elegans, 100 μg/mL; read-out: insecticidal activity, Caenorhabditis elegans
[5] = tested on: Alternaria solani; experiment: Fungicidal activity, fungicide growth rate method, AS; type: cell-based; settings: 50 μg/mL; for inhibition at 50 µg/mL: Alternaria solani, read-out: fungicidal activity (growth inhibition rate), AS
[6] = tested on: Botrytis cinerea; experiment: Fungicidal activity, fungicide growth rate method, BC; type: cell-based; settings: 50 μg/mL; for inhibition at 50 µg/mL: Botrytis cinerea, read-out: fungicidal activity (growth inhibition rate), BC
[7] = tested on: Cercospora arachidicola; experiment: Fungicidal activity, fungicide growth rate method, CA; type: cell-based; settings: 50 μg/mL; for inhibition at 50 µg/mL: Mycosphaerella arachidis, read-out: fungicidal activity (growth inhibition rate), CA
[8] = tested on: wheat Gibberella zeae; experiment: microbe, parasite or virus in culture; type: cell-based; settings: for inhibition at 50 µg/mL: Fusarium graminearum, read-out: fungicidal activity (growth inhibition rate), GZ, 50 μg/mL
[9] = tested on: Phytophthora infestans (Mont.) de Bary; experiment: microbe, parasite or virus in culture; type: cell-based; settings: for inhibition at 50 µg/mL: Phytophthora infestans, read-out: fungicidal activity (growth inhibition rate), PI, 50 μg/mL
[10] = tested on: Pellicularia sasakii; experiment: Fungicidal activity, fungicide growth rate method, PS; type: cell-based; settings: 50 μg/mL; for inhibition at 50 µg/mL: read-out: fungicidal activity (growth inhibition rate), PS
[11] = tested on: Rhizoctonia cerealis; experiment: Fungicidal activity, fungicide growth rate method, RC; type: cell-based; settings: 50 μg/mL; for inhibition at 50 µg/mL: Ceratobasidium cereale, read-out: fungicidal activity (growth inhibition rate), RC
[12] = tested on: Sclerotinia sclerotiorum; experiment: Fungicidal activity, fungicide growth rate method, SS; type: cell-based; settings: 50 μg/mL; for inhibition at 50 µg/mL: Sclerotinia sclerotiorum
[13] = tested on: Apis mellifera ligustica Spin; settings: for Death number after 24 h / Death number after 48 h: per replicate of 10 bees
[14] = tested on: Physalospora piricola; experiment: Fungicidal activity, fungicide growth rate method, PP; type: cell-based; settings: 50 μg/mL; for inhibition at 50 µg/mL: read-out: fungicidal activity (growth inhibition rate), PP

Compound | pest or weed control at 100 µg/mL [1] | pest or weed control at 100 µg/mL [2] | pest or weed control at 100 µg/mL [3] | pest or weed control at 100 µg/mL [4] | inhibition at 50 µg/mL [5] | inhibition at 50 µg/mL [6] | inhibition at 50 µg/mL [7] | inhibition at 50 µg/mL [8] | inhibition at 50 µg/mL [9] | inhibition at 50 µg/mL [10] | inhibition at 50 µg/mL [11] | inhibition at 50 µg/mL [12] | further results
CCOC(=O)C1C(=O)O[C@]23CC=CC[C@@H]2[C@H](OC)C[C@]13O (some centres unmarked) [Zyj06-187] | 10% | 0% | 0% | 8% | 14% | 34% | > 50% | > 50% | 31% | 0% | 50% | 43% | Death rate after 48 h (%) ([13]; dosage 6.08 μg a.i./bee): 0%; Death number after 24 h ([13]; dosage 6.08 μg a.i./bee): 0; Death number after 48 h ([13]; dosage 6.08 μg a.i./bee): 0; Death rate after 48 h (%) ([13]; dosage 10.6 μg a.i./bee): 10.0%; Death number after 24 h ([13]; dosage 10.6 μg a.i./bee): 0; Death number after 48 h ([13]; dosage 10.6 μg a.i./bee): 1
CO[C@@H]1C[C@]2(O)CC(=O)O[C@@]23CC=CC[C@H]13 [Zyj06-189] | 0% | 0% | 0% | 8% | 0% | > 50% | 24% | 13% | 23% | 23% | 29% | 0% | inhibition at 50 µg/mL [14]: > 50%; Death rate after 48 h (%) ([13]; dosage 9.77 μg a.i./bee): 0%; Death number after 24 h ([13]; dosage 9.77 μg a.i./bee): 0; Death number after 48 h ([13]; dosage 9.77 μg a.i./bee): 0; Death rate after 48 h (%) ([13]; dosage 16.4 μg a.i./bee): 0%; Death number after 24 h ([13]; dosage 16.4 μg a.i./bee): 0; Death number after 48 h ([13]; dosage 16.4 μg a.i./bee): 0
C=CC[C@@H]1C[C@]2(O[Si](C)(C)CC=C)CCO[C@@]23C[C@H](O[Si](C)(C)CC=C)CC[C@H]13 [Zyj07-46] | 20% | 5% | 0% | 10% | 8% | > 50% | 14% | 3% | 21% | 22% | 0% | > 50% | inhibition at 50 µg/mL [14]: 21%
C=CC[C@@H]1C[C@]2(O)CC(O)O[C@@]23C[C@H]2O[C@H]2C[C@H]13 (some centres unmarked) [Zyj07-64] | 20% | 10% | 5% | 8% | > 60% | 41% |  | 73% | 17% | > 60% | > 70% | 45% | Death rate after 48 h (%) ([13]; dosage 10.0 μg a.i./bee): 15.0%; Death number after 24 h ([13]; dosage 10.0 μg a.i./bee): 0; Death number after 48 h ([13]; dosage 10.0 μg a.i./bee): 1 and 2; Death rate after 48 h (%) ([13]; dosage 15.5 μg a.i./bee): 10.0%; Death number after 24 h ([13]; dosage 15.5 μg a.i./bee): 0 and 1; Death number after 48 h ([13]; dosage 15.5 μg a.i./bee): 0 and 2
CCOC(=O)C1C(=O)O[C@]23CC=CC[C@@H]2CC[C@]13O (some centres unmarked) [Zyj07-95] | > 30% | 10% | 10% |  | > 60% |  |  | > 50% | 29% | 57% | > 70% | > 50% | Death rate after 48 h (%) ([13]; dosage 9.36 μg a.i./bee): 0%; Death number after 24 h ([13]; dosage 9.36 μg a.i./bee): 0; Death number after 48 h ([13]; dosage 9.36 μg a.i./bee): 0; Death rate after 48 h (%) ([13]; dosage 19.9 μg a.i./bee): 0%; Death number after 24 h ([13]; dosage 19.9 μg a.i./bee): 0; Death number after 48 h ([13]; dosage 19.9 μg a.i./bee): 0
C=CC[C@@H]1C[C@@]2(O)C[C@@H](CC=C)[C@H]3CC=CC[C@@]32O1 [Zyj07-98] | 0% | 0% |  | 25% | > 60% | > 50% |  | > 50% | 17% | 27% | > 70% | > 50% | Death rate after 48 h (%) ([13]; dosage 8.47 μg a.i./bee): 0%; Death number after 24 h ([13]; dosage 8.47 μg a.i./bee): 0; Death number after 48 h ([13]; dosage 8.47 μg a.i./bee): 0
Ryanodine [reference compound] |  |  |  |  |  |  |  |  |  |  |  |  | insecticidal activity, Mythimna separate (Walker) [1]: 100%; insecticidal activity, Helicoverpa armigera (Hübner) [2]: 100%; insecticidal activity, Ostrinia furnacalis [3]: 100%; fungicidal activity (growth inhibition rate), AS [5]: 25%; fungicidal activity (growth inhibition rate), BC [6]: 25%; fungicidal activity (growth inhibition rate), CA [7]: 10%; fungicidal activity (growth inhibition rate), GZ ([8]; 50 μg/mL): 20%; fungicidal activity (growth inhibition rate), PI ([9]; 50 μg/mL): 30%; fungicidal activity (growth inhibition rate), PP [14]: 25%; fungicidal activity (growth inhibition rate), PS [10]: 32%; fungicidal activity (growth inhibition rate), RC [11]: 50%; fungicidal activity (growth inhibition rate), SS [12]: 25%
